Source: patent US10273243B2, “4-phenylpiperidines, their preparation and use” (The Trustees of Columbia University in the City of New York, priority 2013, dated 2019)

What was measured:
[1] = cited from earlier work
Abca4−/− mice = conditions: animal model of excessive bisretinoid accumulation; cited from earlier work
serum RBP4 and retinol = conditions: in vivo; cited from earlier work
RBP4 = RBP4 (Homo sapiens, UniProt P02753); conditions: cited from earlier work
RBP4-TTR interaction = conditions: cited from earlier work
[2] = system: retinal pigment epithelium cells; conditions: many cell types, including the retinal pigment epithelium cells; cited from earlier work

SMILES	melting point [°C]	also measured
N#Cc1ccc2[nH]nc(C(=O)N3CCC(c4ccccc4C(F)(F)F)CC3)c2c1 [Example 36, 3-(4-(2-(Trifluoromethyl)phenyl)piperidine-1-carbonyl)-1H-indazole-5-carbonitrile]	249 to 252	–
CC(C)(C)C(=O)N1Cc2[nH]nc(C(=O)N3CCC(c4ccccc4C(F)(F)F)CC3)c2C1 [Example 56, 2,2-Dimethyl-1-(3-(4-(2-(trifluoromethyl)phenyl)piperidine-1-carbonyl)pyrrolo[3,4-c]pyrazol-5(1H,4H,6H)-yl)propan-1-one]	229 to 232	–
O=C(c1ccn[nH]1)N1CCC(c2ccccc2C(F)(F)F)CC1 [Example 90, (1H-pyrazol-5-yl)(4-(2-(trifluoromethyl)phenyl)piperidin-1-yl)methanone]	167 to 170	–
O=C(c1n[nH]c2c1CNCC2)N1CCC(c2ccccc2C(F)(F)F)CC1 [Example 26, (4,5,6,7-Tetrahydro-1H-pyrazolo[4,3-c]pyridin-3-yl)(4-(2-(trifluoromethyl)phenyl)piperidin-1-yl)methanone]	270 to 272	–
CC(C)C(=O)N1CCc2[nH]nc(C(=O)N3CCC(c4ccccc4C(F)(F)F)CC3)c2C1 [Example 41, 2-Methyl-1-(3-(4-(2-(trifluoromethyl)phenyl)piperidine-1-carbonyl)-6,7-dihydro-1H-pyrazolo[4,3-c]pyridin-5(4H)-yl)propan-1-one]	112 to 114	–
CC(C)CN1CCc2[nH]nc(C(=O)N3CCC(c4ccccc4C(F)(F)F)CC3)c2C1 [Example 45, (5-Isobutyl-4,5,6,7-tetrahydro-1H-pyrazolo[4,3-c]pyridin-3-yl)(4-(2-(trifluoromethyl)phenyl)piperidin-1-yl)methanone]	105 to 107	–
CC1=C(/C=C/C(C)=C/C=C/C(C)=C/C(=O)Nc2ccc(O)cc2)C(C)(C)CCC1 [fenretinide, N-(4-hydroxy-phenyl)retinamide]	–	formation of hemangiosarcomas ([1]; mice): stimulate formation of hemangiosarcomas; selectivity and toxicity ([1]; mouse, in vivo): non-selective and toxic; teratogenicity ([1]; mouse, in vivo): teratogenic; A2E production (Abca4−/− mice): reduced A2E production; ocular all-trans retinol uptake (serum RBP4 and retinol): inhibit ocular all-trans retinol uptake; serum RBP4 and retinol (serum RBP4 and retinol): reduce serum RBP4 and retinol; visual cycle (serum RBP4 and retinol): slow down the visual cycle; binding to RBP4 (RBP4): bind to RBP4; displacement of all-trans retinol from RBP4 (RBP4): displace all-trans retinol from RBP4; disruption of RBP4-TTR interaction (RBP4-TTR interaction): disrupt the RBP4-TTR interaction; induction of apoptosis [2]: extremely active inducer of apoptosis
NC(=O)c1cccc(C(=O)N2CCC(c3ccccc3C(F)(F)F)CC2)c1 [Example 93, 3-(4-(2-(Trifluoromethyl)phenyl)piperidine-1-carbonyl)benzamide]	192 to 194	–
O=C(c1cnccn1)N1CCC(c2ccccc2C(F)(F)F)CC1 [Example 87, Pyrazin-2-yl(4-(2-(trifluoromethyl)phenyl)piperidin-1-yl)methanone]	109 to 111	–
CC(C)S(=O)(=O)N1CCc2[nH]nc(C(=O)N3CCC(c4ccccc4C(F)(F)F)CC3)c2C1 [Example 39, (5-(Isopropylsulfonyl)-4,5,6,7-tetrahydro-1H-pyrazolo[4,3-c]pyridin-3-yl)(4-(2-(trifluoromethyl)phenyl)piperidin-1-yl)methanone]	199 to 201	–

Continued, in another order:

melting point [°C]	SMILES	also measured
115 to 120	CN1CCc2c(C(=O)N3CCC(c4ccccc4C(F)(F)F)CC3)n[nH]c2C1 [Example 19, (6-Methyl-4,5,6,7-tetrahydro-1H-pyrazolo[3,4-c]pyridin-3-yl)(4-(2-(trifluoromethyl)phenyl)piperidin-1-yl)methanone]	–
232 to 234	Cn1nc(C(=O)N2CCC(c3ccccc3C(F)(F)F)CC2)c2c1CCS(=O)(=O)C2 [Example 3, (1-methyl-5,5-dioxido-1,4,6,7-tetrahydrothiopyrano[4,3-c]pyrazol-3-yl)(4-(2-(trifluoromethyl)phenyl)piperidin-1-yl)methanone]	–
125 to 127	O=C(c1cccnn1)N1CCC(c2ccccc2C(F)(F)F)CC1 [Example 82, Pyridazin-3-yl(4-(2-(trifluoromethyl)phenyl)piperidin-1-yl)methanone]	–
75 to 85	CN1CCCc2[nH]nc(C(=O)N3CCC(c4ccccc4C(F)(F)F)CC3)c2C1 [Example 10, (5-Methyl-1,4,5,6,7,8-hexahydropyrazolo[4,3-c]azepin-3-yl)(4-(2-(trifluoromethyl)phenyl)piperidin-1-yl)methanone]	–
186 to 192	CC(=O)N1Cc2[nH]nc(C(=O)N3CCC(c4ccccc4C(F)(F)F)CC3)c2C1 [Example 7, 1-(3-(4-(2-(Trifluoromethyl)phenyl)piperidine-1-carbonyl)pyrrolo[3,4-c]pyrazol-5(1H,4H,6H)-yl)ethanone]	–
178 to 180	CC(C)CS(=O)(=O)N1CCc2[nH]nc(C(=O)N3CCC(c4ccccc4C(F)(F)F)CC3)c2C1 [Example 38, (5-(Isobutylsulfonyl)-4,5,6,7-tetrahydro-1H-pyrazolo[4,3-c]pyridin-3-yl)(4-(2-(trifluoromethyl)phenyl)piperidin-1-yl)methanone]	–
200 to 203	CC(C)CC(=O)N1Cc2[nH]nc(C(=O)N3CCC(c4ccccc4C(F)(F)F)CC3)c2C1 [Example 55, 3-Methyl-1-(3-(4-(2-(trifluoromethyl)phenyl)piperidine-1-carbonyl)pyrrolo[3,4-c]pyrazol-5(1H,4H,6H)-yl)butan-1-one]	–
122 to 125	COc1ccc(C(=O)N2CCC(c3ccccc3C(F)(F)F)CC2)nn1 [Example 86, (6-Methoxypyridazin-3-yl)(4-(2-(trifluoromethyl)phenyl)piperidin-1-yl)methanone]	–
216 to 219	CCC(=O)N1Cc2[nH]nc(C(=O)N3CCC(c4ccccc4C(F)(F)F)CC3)c2C1 [Example 53, 1-(3-(4-(2-(Trifluoromethyl)phenyl)piperidine-1-carbonyl)pyrrolo[3,4-c]pyrazol-5(1H,4H,6H)-yl)propan-1-one]	–
233 to 235	O=C(c1n[nH]c2cc(F)c(F)cc12)N1CCC(c2ccccc2C(F)(F)F)CC1 [Example 34, (5,6-Difluoro-1H-indazol-3-yl)(4-(2-(trifluoromethyl)phenyl)piperidin-1-yl)methanone]	–
107 to 109	CC(C)CC(=O)N1CCc2[nH]nc(C(=O)N3CCC(c4ccccc4C(F)(F)F)CC3)c2C1 [Example 42, 3-Methyl-1-(3-(4-(2-(trifluoromethyl)phenyl)piperidine-1-carbonyl)-6,7-dihydro-1H-pyrazolo[4,3-c]pyridin-5(4H)-yl)butan-1-one]	–
152 to 155	O=C(c1ccc2nccn2n1)N1CCC(c2ccccc2C(F)(F)F)CC1 [Example 81, Imidazo[1,2-b]pyridazin-6-yl(4-(2-(trifluoromethyl)phenyl)piperidin-1-yl)methanone]	–
200 to 203	CC(C)C(=O)N1CCc2c(C(=O)N3CCC(c4ccccc4C(F)(F)F)CC3)n[nH]c2C1 [Example 52, 2-Methyl-1-(3-(4-(2-(trifluoromethyl)phenyl)piperidine-1-carbonyl)-4,5-dihydro-1H-pyrazolo[3,4-c]pyridin-6(7H)-yl)propan-1-one]	–
161 to 163	Cn1nc(C(=O)N2CCC(c3ccccc3C(F)(F)F)CC2)c2cc(F)ccc21 [Example 21, (5-Fluoro-1-methyl-1H-indazol-3-yl)(4-(2-(trifluoromethyl)phenyl)piperidin-1-yl)methanone]	–
